In patent US20170354629A1, “Method And Compositions For Treating Skin” (ELC Management LLC, priority 2011, published 2017):

What was measured:
[1] = test system: per1 gene expression in skin cells; experiment: observation of per1 gene expression in skin cells (no method given); type: cell-based; conditions: component commonly found in extracts of Echinacea
per1 gene expression = per1 gene expression luciferase reporter assay in keratinocytes; type: cell-based; conditions: normal human epidermal keratinocytes (NHEK) transfected with pGL4.11 per1/luciferase plasmid; 16 hours incubation with test material; values only in FIGS. 1 and 2
Description: Cichoric acid and […] purpurea extract ([…]) were tested to determine per1 gene expression. Normal human epidermal keratinocytes (NHEK) were diluted in […] with supplement S001-5 added (Gibco, Cascade Biologics, Invitrogen) to form a concentration of 3×10^4 and plated onto a black walled 96 well microtiter plate by adding 100 μl in each well. The plate was incubated for 3 hours at 37° C. in 5% CO2. The media was removed and remaining adhered cells rinsed with […], supplement free. A plasmid solution was prepared by diluting Tris-EDTA pH 8.0 buffer with plasmid pGL4.11 (DNA 2.0, Carlsbad, Calif.) to form a 1 mg/ml solution. This plasmid contained a per1 gene sequence and a luciferase reporter gene sequence. A transfection mixture was prepared by diluting […], supplement free, to form a solution with 0.31 μg/ml of plasmid (obtained by adding appropriate amount of plasmid solution prepared above), 1.28% PlusTM Reagent (Catalog No. 11514-015, Invitrogen, Carlsbad, Calif.), and 3.22% LipofectamineTM Transfection Reagent (Catalog No. 18324-012, Invitrogen, Carlsbad, Calif.). […] Immediately prior to reading, Bright-GloTM (Pro-Mega, Madison Wis.) was added to each well plate in the same volume as is currently in the well (e.g. a 1:1 dilution). Luminescence was measured in an LMaxTM Microplate Luminometer (Molecular Devices, Sunnyvale, Calif.).

per1 gene expression (luminescence of per1-luciferase reporter) (per1 gene expression) | Compound | per1 gene expression in skin cells [1]
– | O=C(/C=C/c1ccc(O)c(O)c1)O[C@@H](C(=O)O)[C@@H](O)C(=O)O [caftaric acid] | does not increase per1 gene expression
stimulate per1 gene expression | O=C(/C=C/c1ccc(O)c(O)c1)O[C@@H](C(=O)O)[C@@H](OC(=O)/C=C/c1ccc(O)c(O)c1)C(=O)O [cichoric acid] | –
